Reference: ChEMBL document CHEMBL1201862, “PubChem BioAssay data set” (2004)
Activity calls are given as the source filed them.

Columns and labels:
Vero [1] = experiment: cells; type: functional, cell-based; conditions: Chlorocebus sabaeus
Vero [2] = experiment: host cell cytotoxicity of antiviral hits, dose response, cytotoxicity control for West Nile virus antiviral project, secondary assay (AID 1650); type: functional; conditions: Chlorocebus sabaeus
Vero [3] = experiment: West Nile virus antiviral activity, cell-based, CPE readout (AID 1621); type: functional; conditions: Chlorocebus sabaeus
[4] = HEp-2 cell cytotoxicity, dose response, cytotoxicity control for RSV inhibitor project, HTS (AID 2410); type: functional; conditions: human respiratory syncytial virus
[5] = molecular target: Diphosphomevalonate decarboxylase (Streptococcus pneumoniae serotype 2 (strain D39 / NCTC 7466), UniProt Q9FD53); experiment: S. pneumoniae DPM-DC inhibition retest, confirmation, biochemical, cuvette format, coupled NADH fluorescence (AID 1028); type: functional
Sequence of Diphosphomevalonate decarboxylase (Q9FD53 whole entry): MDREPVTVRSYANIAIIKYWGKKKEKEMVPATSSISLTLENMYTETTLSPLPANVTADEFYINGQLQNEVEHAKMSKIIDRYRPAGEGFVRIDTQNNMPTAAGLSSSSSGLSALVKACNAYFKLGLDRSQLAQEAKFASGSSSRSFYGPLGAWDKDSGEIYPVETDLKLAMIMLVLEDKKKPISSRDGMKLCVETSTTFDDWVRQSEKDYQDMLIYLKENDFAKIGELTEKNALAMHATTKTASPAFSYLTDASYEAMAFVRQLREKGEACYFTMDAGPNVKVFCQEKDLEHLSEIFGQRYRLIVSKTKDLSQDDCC

[6] = molecular target: G-protein coupled receptor 35 (Homo sapiens, UniProt Q9HC97); experiment: SAR Analysis for the identification of Selective Antagonists of ERK1/2 Activity in GPR35-Overexpressing U2OS Cells. [Related pubchem assays: 2079, 2058 ]; type: functional, cell-based
Sequence of G-protein coupled receptor 35 (Q9HC97 whole entry): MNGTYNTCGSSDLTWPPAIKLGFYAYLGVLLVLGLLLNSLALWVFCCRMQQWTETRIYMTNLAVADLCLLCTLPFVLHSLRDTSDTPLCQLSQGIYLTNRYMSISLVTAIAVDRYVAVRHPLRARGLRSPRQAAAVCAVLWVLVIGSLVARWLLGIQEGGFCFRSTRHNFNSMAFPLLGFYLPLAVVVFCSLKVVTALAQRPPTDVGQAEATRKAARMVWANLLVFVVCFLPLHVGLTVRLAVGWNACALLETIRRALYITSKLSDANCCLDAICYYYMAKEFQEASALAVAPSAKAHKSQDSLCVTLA

Protein RecA = molecular target: T1, Protein RecA (Mycobacterium tuberculosis, UniProt P9WHJ3); experiment: Fluorescence Cell-Free Homogeneous Dose Retest to Identify Inhibitors of RecA-Intein Splicing Activity. [Related pubchem assays (depositor defined):AID2097, AID2223, AID489010, AID492950]; type: functional
T1 sequence (P9WHJ3 whole entry): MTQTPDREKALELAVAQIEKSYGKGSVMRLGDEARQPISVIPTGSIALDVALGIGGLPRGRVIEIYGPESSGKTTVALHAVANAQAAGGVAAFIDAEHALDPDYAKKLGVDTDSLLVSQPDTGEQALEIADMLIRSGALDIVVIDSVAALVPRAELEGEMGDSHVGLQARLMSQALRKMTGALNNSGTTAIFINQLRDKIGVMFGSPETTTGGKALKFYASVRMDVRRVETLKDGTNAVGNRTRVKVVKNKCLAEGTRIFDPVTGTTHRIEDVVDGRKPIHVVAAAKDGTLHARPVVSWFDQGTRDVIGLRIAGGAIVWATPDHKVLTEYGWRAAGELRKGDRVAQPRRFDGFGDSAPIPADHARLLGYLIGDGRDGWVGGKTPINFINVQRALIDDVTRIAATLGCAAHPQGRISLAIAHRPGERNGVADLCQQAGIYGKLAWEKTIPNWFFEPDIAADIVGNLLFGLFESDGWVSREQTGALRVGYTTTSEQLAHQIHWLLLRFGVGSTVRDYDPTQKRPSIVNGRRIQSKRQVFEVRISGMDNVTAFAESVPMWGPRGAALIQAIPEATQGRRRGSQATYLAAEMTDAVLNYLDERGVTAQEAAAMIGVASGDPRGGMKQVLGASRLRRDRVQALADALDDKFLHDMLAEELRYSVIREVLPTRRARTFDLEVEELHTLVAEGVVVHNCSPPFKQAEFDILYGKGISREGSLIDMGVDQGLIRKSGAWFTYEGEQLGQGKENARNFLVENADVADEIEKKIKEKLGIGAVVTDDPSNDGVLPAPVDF

[7] = cytotoxicity in HEK-293T cells, dose response, cytotoxicity control for BCR NF-kB inhibitor project, luminescence, B-cell screen hits (AID 489021); type: functional, cell-based;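 also: HEK-293T cells carrying an NF-kB luciferase reporter; cells exposed to compound for about 14 hours before viability readout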
[8] = molecular target: T2, Replicative DNA helicase DnaB (Mycobacterium tuberculosis, UniProt P9WMR3); experiment: DnaB intein splicing inhibitors, dose response, biochemical, cell-free fluorescence (AID 449749); type: functional
T2 sequence (P9WMR3 whole entry): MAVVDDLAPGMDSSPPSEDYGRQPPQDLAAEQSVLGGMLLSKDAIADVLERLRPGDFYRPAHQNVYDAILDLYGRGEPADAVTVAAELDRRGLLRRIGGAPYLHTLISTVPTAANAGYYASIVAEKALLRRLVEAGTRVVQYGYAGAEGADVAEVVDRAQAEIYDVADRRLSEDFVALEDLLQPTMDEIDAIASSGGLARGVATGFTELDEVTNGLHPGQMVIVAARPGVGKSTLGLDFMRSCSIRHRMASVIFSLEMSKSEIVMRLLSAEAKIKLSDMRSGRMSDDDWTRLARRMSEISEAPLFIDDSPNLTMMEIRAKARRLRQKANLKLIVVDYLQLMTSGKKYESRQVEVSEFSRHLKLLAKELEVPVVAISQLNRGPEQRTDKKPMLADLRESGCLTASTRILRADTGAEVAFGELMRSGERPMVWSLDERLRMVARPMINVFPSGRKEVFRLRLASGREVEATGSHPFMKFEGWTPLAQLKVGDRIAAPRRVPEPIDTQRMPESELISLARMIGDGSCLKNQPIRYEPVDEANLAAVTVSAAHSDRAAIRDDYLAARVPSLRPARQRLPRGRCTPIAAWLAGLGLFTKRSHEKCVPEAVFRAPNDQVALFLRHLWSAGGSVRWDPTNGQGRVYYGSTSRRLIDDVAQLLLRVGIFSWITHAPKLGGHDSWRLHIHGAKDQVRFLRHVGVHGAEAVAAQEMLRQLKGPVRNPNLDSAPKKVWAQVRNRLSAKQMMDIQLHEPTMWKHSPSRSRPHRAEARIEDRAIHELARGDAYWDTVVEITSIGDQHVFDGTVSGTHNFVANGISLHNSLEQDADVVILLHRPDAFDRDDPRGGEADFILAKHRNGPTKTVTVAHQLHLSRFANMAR

[9] = molecular target: G-protein coupled receptor 55 (Homo sapiens, UniProt Q9Y2T6); experiment: GPR55 antagonists, SAR follow-up, counter-screen for GPR35 antagonist project, imaging, image-based (AID 2397); type: functional
Sequence of G-protein coupled receptor 55 (Q9Y2T6 whole entry): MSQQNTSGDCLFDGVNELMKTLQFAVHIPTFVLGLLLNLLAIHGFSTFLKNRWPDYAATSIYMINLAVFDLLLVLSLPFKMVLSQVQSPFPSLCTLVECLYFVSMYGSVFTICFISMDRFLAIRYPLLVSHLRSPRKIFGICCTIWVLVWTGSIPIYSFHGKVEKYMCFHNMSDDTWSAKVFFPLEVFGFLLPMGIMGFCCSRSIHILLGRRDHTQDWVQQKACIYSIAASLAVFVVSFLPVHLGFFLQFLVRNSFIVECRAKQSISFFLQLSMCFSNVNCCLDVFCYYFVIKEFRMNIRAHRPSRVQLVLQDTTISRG

[10] = cytotoxicity toward NIH3T3 fibroblasts, dose response, counter-screen, cell-based, ATP luminescence, mouse fibroblasts (AID 2010); type: functional;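 also: cells exposed to compound for about 90 hours before reading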
[11] = inhibitors of intracellular T. cruzi replication, confirmation, NIH3T3 host cells, beta-gal luminescence (AID 2044); type: functional, cell-based;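 also: intracellular parasites grown in NIH/3T3 mouse fibroblasts as host cells; luminescent beta-galactosidase reporter signal from transgenic T. cruzi replicating inside host cells; inhibitors lower the luminescence signal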
[12] = Luminescent dose response cell-based high throughput screening assay for inhibitors of the Janus kinase 2 mutant JAK2V617F. [Related pubchem assays: 1446 (Primary screen.), 1521 (Confirmation assay.), 1486 (Counter screen.)]; type: functional
[13] = molecular target: DNA repair and recombination protein RAD54-like (Homo sapiens, UniProt Q92698); experiment: inhibitors of human RAD54 branch migration, confirmation, biochemical, fluorescence, cherry-picked samples, dose series (AID 651657); type: functional
Sequence of DNA repair and recombination protein RAD54-like (Q92698 whole entry): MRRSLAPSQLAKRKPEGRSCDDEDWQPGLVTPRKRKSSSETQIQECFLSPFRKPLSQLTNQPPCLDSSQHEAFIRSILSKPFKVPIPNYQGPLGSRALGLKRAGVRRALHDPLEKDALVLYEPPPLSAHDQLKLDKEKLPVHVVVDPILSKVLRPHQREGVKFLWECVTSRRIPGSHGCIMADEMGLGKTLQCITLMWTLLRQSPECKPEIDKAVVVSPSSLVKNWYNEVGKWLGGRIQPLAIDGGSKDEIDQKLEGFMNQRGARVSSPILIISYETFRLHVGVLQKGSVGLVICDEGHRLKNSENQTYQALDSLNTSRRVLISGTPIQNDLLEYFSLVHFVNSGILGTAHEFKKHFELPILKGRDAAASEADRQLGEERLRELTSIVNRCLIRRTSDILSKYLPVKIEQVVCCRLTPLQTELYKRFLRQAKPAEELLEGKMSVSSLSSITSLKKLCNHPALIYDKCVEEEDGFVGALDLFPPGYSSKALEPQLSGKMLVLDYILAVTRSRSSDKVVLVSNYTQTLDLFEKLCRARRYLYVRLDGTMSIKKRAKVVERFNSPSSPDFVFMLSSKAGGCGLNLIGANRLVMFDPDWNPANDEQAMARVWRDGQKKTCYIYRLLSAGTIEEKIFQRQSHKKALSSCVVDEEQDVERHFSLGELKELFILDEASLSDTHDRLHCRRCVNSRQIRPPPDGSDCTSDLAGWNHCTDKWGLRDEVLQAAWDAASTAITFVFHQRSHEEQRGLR

[14] = Luminescence Cell-Based Dose Retest to Confirm Inhibitors of Cancer Stem Cells. [Related pubchem assays (depositor defined):AID2717, AID2721]; type: functional; conditions: Homo sapiens
[15] = molecular target: T3, Tyrosine-protein phosphatase non-receptor type 7 (Homo sapiens, UniProt P35236); experiment: inhibitors of human HePTP phosphatase, […], biochemical, absorbance, leukemia target (AID 521); type: functional
T3 sequence (P35236 whole entry): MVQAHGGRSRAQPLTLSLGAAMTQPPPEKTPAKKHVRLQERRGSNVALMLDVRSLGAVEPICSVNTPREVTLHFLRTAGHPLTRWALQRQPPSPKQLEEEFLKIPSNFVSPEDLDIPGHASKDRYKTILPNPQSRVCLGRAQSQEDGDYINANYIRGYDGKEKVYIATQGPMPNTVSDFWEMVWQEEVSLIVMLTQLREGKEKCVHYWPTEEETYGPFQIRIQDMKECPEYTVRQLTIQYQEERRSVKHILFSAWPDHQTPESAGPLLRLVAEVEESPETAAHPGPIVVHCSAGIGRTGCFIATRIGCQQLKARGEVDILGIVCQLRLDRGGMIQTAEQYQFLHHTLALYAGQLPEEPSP

Cytochrome P450 1A2 = molecular target: T4, Cytochrome P450 1A2 (Homo sapiens, UniProt P05177);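 also: PubChem cytochrome P450 panel assay, CYP1A2 panel member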
T4 sequence (P05177 whole entry): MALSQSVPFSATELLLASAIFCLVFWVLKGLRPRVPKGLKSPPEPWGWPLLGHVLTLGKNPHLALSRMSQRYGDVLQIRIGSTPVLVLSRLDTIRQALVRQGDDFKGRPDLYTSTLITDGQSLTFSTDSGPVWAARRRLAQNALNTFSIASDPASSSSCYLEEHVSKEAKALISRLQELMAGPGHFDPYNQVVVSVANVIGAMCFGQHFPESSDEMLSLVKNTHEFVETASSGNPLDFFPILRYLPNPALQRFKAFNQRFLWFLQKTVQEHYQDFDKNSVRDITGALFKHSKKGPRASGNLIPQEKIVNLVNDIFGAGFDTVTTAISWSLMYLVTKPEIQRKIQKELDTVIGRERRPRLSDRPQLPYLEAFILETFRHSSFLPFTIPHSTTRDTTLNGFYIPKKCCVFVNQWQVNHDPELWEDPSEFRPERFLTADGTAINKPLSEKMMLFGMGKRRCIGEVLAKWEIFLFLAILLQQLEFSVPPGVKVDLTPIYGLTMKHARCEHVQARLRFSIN

[16] = molecular target: T5, Mannose-6-phosphate isomerase (Homo sapiens, UniProt P34949); experiment: human PMI inhibitors, high substrate, primary screen, biochemical, fluorescence intensity, high mannose 6-phosphate (AID 1220)
T5 sequence (P34949 whole entry): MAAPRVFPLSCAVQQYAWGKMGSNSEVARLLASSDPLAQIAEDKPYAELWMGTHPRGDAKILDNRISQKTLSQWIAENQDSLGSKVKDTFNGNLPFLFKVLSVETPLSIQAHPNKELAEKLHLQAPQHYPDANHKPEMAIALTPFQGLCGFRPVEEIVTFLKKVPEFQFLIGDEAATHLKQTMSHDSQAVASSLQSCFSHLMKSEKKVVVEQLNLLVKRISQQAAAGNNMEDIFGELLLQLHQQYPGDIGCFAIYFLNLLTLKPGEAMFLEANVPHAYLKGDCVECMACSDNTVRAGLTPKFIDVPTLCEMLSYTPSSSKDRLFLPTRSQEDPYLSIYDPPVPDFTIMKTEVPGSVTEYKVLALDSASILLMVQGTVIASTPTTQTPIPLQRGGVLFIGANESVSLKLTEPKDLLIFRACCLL

[17] = M. tuberculosis growth inhibition, HTS (AID 449762); type: functional
[18] = molecular target: Luciferin 4-monooxygenase (Photinus pyralis, UniProt P08659); experiment: firefly luciferase enzyme inhibitors, dose response, biochemical, luminescence (AID 1891)
Sequence of Luciferin 4-monooxygenase (P08659 whole entry): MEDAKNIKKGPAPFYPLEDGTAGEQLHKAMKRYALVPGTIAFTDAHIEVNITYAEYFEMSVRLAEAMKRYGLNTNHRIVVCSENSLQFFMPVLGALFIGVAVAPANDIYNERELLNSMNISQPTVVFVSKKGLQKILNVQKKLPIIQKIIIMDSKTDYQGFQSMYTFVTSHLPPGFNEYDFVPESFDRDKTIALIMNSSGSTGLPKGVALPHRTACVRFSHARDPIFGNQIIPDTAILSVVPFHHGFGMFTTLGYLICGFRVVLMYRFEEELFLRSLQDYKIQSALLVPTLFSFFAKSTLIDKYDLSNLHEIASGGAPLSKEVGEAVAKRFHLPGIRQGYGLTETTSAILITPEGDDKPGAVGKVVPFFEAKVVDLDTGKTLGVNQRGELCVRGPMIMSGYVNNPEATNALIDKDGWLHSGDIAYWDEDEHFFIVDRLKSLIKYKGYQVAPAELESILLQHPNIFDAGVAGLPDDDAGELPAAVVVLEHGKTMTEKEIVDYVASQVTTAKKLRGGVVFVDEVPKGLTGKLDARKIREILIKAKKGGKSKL

[19] = Luminescence Cell-Based Dose Confirmation HTS to Identify Inhibitors of Platelet Dense Granule Release. [Related pubchem assays: 1663 (Primary HTS), 1678 (Summary of Project)]; type: functional
[20] = molecular target: T6, High affinity choline transporter 1 (Homo sapiens, UniProt Q9GZV3); experiment: CHT inhibitors, dose response, cell-based, 5-point CRC, membrane potential dye (AID 504840); type: functional
T6 sequence (Q9GZV3 whole entry): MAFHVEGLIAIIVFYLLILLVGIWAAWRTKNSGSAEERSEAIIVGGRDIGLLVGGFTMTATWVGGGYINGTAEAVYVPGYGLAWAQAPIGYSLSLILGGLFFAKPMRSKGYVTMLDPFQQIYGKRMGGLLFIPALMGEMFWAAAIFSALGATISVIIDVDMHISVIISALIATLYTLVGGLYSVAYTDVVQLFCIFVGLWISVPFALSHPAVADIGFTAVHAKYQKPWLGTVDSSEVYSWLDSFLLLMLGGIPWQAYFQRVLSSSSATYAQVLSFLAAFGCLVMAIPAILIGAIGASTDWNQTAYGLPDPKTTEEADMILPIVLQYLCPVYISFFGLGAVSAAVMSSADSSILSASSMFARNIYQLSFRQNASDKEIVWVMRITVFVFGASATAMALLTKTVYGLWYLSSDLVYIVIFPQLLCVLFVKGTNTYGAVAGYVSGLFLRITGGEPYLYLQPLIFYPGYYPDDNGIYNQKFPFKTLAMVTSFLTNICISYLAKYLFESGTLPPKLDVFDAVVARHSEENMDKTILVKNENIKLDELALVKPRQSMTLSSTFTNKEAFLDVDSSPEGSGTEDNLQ

[21] = Fluorescence Cell-Based Dose Response to Identify Inhibitors of Thrombin Receptor-Activating Peptide SFLLRN-Mediated P-Selectin Induction on Platelets. [Related pubchem assays: 1663 (Primary HTS), 1889 (retest at dose ), 1891 (counterscreen), 1678 (Project Summary)]; type: functional
Ephrin type-A receptor 4 = Ephrin type-A receptor 4 (Mus musculus, UniProt Q03137); experiment: inhibitors of EphA4 binding to KYL peptide, primary screen, biochemical, colorimetric, mouse EphA4 (AID 689); type: functional
Sequence of Ephrin type-A receptor 4 (Q03137 whole entry): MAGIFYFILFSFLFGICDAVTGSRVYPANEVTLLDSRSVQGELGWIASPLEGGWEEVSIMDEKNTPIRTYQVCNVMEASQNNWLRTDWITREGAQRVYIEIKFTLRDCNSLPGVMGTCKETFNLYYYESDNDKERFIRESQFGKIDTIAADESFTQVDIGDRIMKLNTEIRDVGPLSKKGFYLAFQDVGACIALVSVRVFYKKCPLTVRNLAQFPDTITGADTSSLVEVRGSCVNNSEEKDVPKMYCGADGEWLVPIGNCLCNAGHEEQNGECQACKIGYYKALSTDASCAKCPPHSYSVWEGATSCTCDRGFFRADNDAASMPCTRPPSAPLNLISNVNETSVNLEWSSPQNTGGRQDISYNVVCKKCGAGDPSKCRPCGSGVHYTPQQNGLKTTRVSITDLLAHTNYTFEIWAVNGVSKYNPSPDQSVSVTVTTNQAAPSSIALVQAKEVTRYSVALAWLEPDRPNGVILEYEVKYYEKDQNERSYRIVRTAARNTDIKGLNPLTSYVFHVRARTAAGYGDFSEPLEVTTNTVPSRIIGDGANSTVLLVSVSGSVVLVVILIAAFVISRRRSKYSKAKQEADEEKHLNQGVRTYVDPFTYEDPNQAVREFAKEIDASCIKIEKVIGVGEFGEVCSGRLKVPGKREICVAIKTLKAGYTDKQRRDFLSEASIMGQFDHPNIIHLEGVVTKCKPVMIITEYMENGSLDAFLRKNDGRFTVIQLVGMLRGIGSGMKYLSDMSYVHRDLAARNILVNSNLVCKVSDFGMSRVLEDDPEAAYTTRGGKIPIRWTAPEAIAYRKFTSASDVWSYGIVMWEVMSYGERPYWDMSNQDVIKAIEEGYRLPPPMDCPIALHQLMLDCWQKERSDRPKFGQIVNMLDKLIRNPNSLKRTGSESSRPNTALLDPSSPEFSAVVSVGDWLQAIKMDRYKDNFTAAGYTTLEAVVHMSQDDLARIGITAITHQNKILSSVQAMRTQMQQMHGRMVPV

COC(=O)c1c(-c2ccccc2)csc1NC(=O)c1c(-c2ccccc2)noc1C
IC50 (cells): 3.07 µM (active)
IC50 (Vero [1]): 0.8 µM (active)
CC50 (Vero [2]): 10.1 µM (active)
IC50 (Vero [3]): 41.3 µM (active)
CC50 [4]: 6.35 µM (active)

O=C(NCc1ccco1)c1ccc(-n2sc3ccccc3c2=O)cc1
IC50 [5]: 4.68 µM (active)

COc1ccc(/C=C2\SC(=S)N(CCCC(=O)Nc3ccc(O)cc3)C2=O)cc1
IC50 [6]: > 32 µM (not active)
EC50 (Protein RecA): 78.1 µM (active)
IC50 [7]: > 80 µM (inactive)
AC50 [8]: > 380 µM (inactive)
IC50 [9]: > 32 µM (inactive)

CC1CCCN(CCCNC(=O)c2cc3c(Cl)nc4ccccc4c3s2)C1 (stereo not given)
EC50 [10]: 6.28 µM (active)
EC50 [11]: 1.4 µM (active)
IC50 [12]: 0.934 µM (active)
AC50 [13]: 9.98 µM (active)
AC50 [14]: 8.01 µM (active)

Cc1c(NC(=O)CN2C(=O)C3C4C=CC(C4)C3C2=O)c(=O)n(-c2ccccc2)n1C (stereo not given)
IC50 [15]: > 100 µM (not active)
AC50 (Cytochrome P450 1A2): 39.8 µM (inconclusive)

Cc1cccc(CSc2nc3c(c(-c4cccs4)c2C#N)CN(C)CC3)c1
EC50 [10]: > 60 µM (not active)
EC50 [11]: 0.101 µM (active)
EC50 (Protein RecA): 0.503 µM (active)
IC50 [16]: > 50 µM (not active)
AC50 [8]: 16.5 µM (active)
IC50 [17]: > 100 µM (active)

COC(=O)C(C)Sc1nc2c(c(=O)[nH]c(=O)n2C)n1CCCc1ccccc1 (stereo not given)
EC50 [18]: > 112 µM (not active)
EC50 [19]: 6.52 µM (active)
IC50 [20]: 12.6 µM (active)
EC50 [21]: < 30 µM (active)

CCn1c(SCc2nc(-c3ccccc3)no2)nnc1-c1cccs1
IC50 [20]: 15.1 µM (active)
IC50 (Ephrin type-A receptor 4): > 100 µM (not active)
